Data taken from PubChem BioAssay (NCI).
“And” between values parts separate entries of the source, which are not always exact repeats. Identical values can stand only once.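 Five compound concentrations were applied to cells in 96-well plates for 48 hours; endpoints were derived by simple linear interpolation of the resulting dose-response curve. Here, GI50 denotes the concentration required for 50% inhibition of growth. Definition used: TGI = concentration required for complete inhibition of growth.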

Tests used:
Test in all cases: growth of human tumour cells (NCI), 48 h
A498 renal = tested on: A498 renal
MDA-MB-435 = tested on: MDA-MB-435
UO-31 renal = tested on: UO-31 renal
T-47D breast = tested on: T-47D breast
OVCAR-5 ovarian = tested on: OVCAR-5 ovarian
SK-MEL-5 melanoma = tested on: SK-MEL-5 melanoma
SW-620 colon = tested on: SW-620 colon
U251 CNS = tested on: U251 CNS
RXF 393 renal = tested on: RXF 393 renal
SNB-75 CNS = tested on: SNB-75 CNS

SMILES | GI50 (A498 renal) | TGI (A498 renal) | GI50 (MDA-MB-435) | TGI (MDA-MB-435) | GI50 (UO-31 renal) | TGI (UO-31 renal) | GI50 (T-47D breast) | TGI (T-47D breast) | GI50 (OVCAR-5 ovarian) | TGI (OVCAR-5 ovarian) | GI50 (SK-MEL-5 melanoma) | TGI (SK-MEL-5 melanoma) | GI50 (SW-620 colon) | TGI (SW-620 colon) | GI50 (U251 CNS) | TGI (U251 CNS) | GI50 (RXF 393 renal) | TGI (RXF 393 renal) | GI50 (SNB-75 CNS) | TGI (SNB-75 CNS)
Cc1cc(C(=O)O)c(C)n1-c1cccc(C(=O)O)c1 | > 100 µM | > 100 µM | > 100 µM | > 100 µM | > 100 µM | > 100 µM | > 100 µM | > 100 µM | > 100 µM | > 100 µM | > 100 µM | > 100 µM | > 100 µM | > 100 µM | > 100 µM | > 100 µM | > 100 µM | > 100 µM | > 100 µM | > 100 µM
COc1cccc2c1C(=O)c1c(O)c3c(c(O)c1C2=O)C[C@@](O)(C(=O)CO)CC3OC1CC(O)C(O)C(C)O1 (stereo partly drawn) | – | 1.29 µM | – | 2.05 µM | – | 2.41 µM | – | 5.44 µM | – | 3.66 µM | – | 0.687 µM | – | 17.3 µM | – | 13.9 µM | – | 0.957 µM | – | 1.08 µM
Cc1cc2nc3cc(C)c(N)cc3[n+](-c3ccccc3)c2cc1N | 54.8 µM | > 100 µM | 4.68 µM | 67 µM | > 100 µM | > 100 µM | 1.8 µM | 19.9 µM | 46.3 µM | > 100 µM | 0.773 µM | 5.4 µM | 5.62 µM | > 45.2 µM | 0.945 µM | > 100 µM | 17.5 µM | > 100 µM | 2.59 µM | > 100 µM
C[C@]12CC[C@H]3[C@@H](C[C@@H]4SC(Nc5ccccc5)=N[C@@]45CC(O)CC[C@]35C)[C@@H]1CCC2O (stereo partly drawn) | 2.16 µM | 5.66 µM | 2.25 µM | 7.03 µM | 1.67 µM | 3.05 µM | 2.41 µM | 7.59 µM | 2.68 µM | 7.86 µM | 1.82 µM | 3.41 µM | 2.27 µM | 5.36 µM | 1.36 µM | 2.79 µM | 0.798 µM | 2.28 µM | 1.49 µM | 3.05 µM
NCCOc1ccccc1/C=C1\c2ccccc2-c2ccc([N+](=O)[O-])cc21 | 1.44 µM | 2.76 µM | 1.68 µM | 3.09 µM | 1.3 µM | 2.61 µM | 1.66 µM | 3.44 µM | 1.61 µM | 3.06 µM | 1.8 µM | 3.22 µM | 1.09 µM | 2.43 µM | 1.38 µM | 2.74 µM | 1.6 µM | 3.1 µM | 1.28 µM | 2.55 µM
Cc1cc(C(=O)NC(CCC(=O)O)C(=O)O)sc1CCC1CNc2nc(N)[nH]c(=O)c2C1 (stereo not drawn) | 0.199 µM and 0.0945 µM | > 100 µM | 0.0354 µM and 0.0542 µM | > 100 µM | 0.0319 µM and 0.0592 µM | > 100 µM | – | > 100 µM | 0.0383 µM and 0.0723 µM | > 100 µM | 0.056 µM and 0.279 µM | > 100 µM | < 0.0174 µM and 0.0255 µM | > 100 µM | 0.0368 µM and 0.0439 µM | > 100 µM | 0.015 µM and < 0.0158 µM | > 100 µM | – | > 100 µM
CCC(=O)Nc1ccccc1C#C/C=C\C#Cc1ccccc1C(F)(F)F | 1.68 µM | 10.7 µM | 0.851 µM | 1.84 µM | 2.59 µM | > 50 µM | 6.04 µM | > 38.9 µM | 3.2 µM | > 37 µM | 5.44 µM | 18.1 µM | 1.73 µM | > 24.4 µM | 2.42 µM | > 40.7 µM | 2.84 µM | > 12.7 µM | 0.884 µM | 5.85 µM
Cc1ccn2c(CCc3nnc4cc(C)ccn34)nnc2c1 | – | > 100 µM | – | > 100 µM | – | > 100 µM | – | > 100 µM | – | > 100 µM | – | > 100 µM | – | > 100 µM | – | > 100 µM | – | > 100 µM | – | > 100 µM
Cc1ccc(C2=C(c3ccc(C)cc3)C3(c4ccc(C)cc4)C4C(=O)c5ccccc5C(=O)C4C2(c2ccc(C)cc2)S3=O)cc1 (stereo not drawn) | > 100 µM | > 100 µM | > 100 µM | > 100 µM | > 100 µM | > 100 µM | 72.4 µM | > 100 µM | > 100 µM | > 100 µM | > 100 µM | > 100 µM | > 100 µM | > 100 µM | 63 µM | > 100 µM | 94.4 µM | > 100 µM | 9.93 µM | 31 µM
COC(=O)C(CBr)CBr | – | 31.8 µM | – | 10.1 µM | – | 10.2 µM | – | 7.22 µM | – | 31.2 µM | – | 25.1 µM | – | 3.11 µM | – | 10.3 µM | – | 4.86 µM | – | 31.4 µM
CCN(CC)CCN(Cc1ccc(F)cc1)c1ccc(CO)c(Cl)c1 | 1.55 µM | 3.18 µM | 23.5 µM | 74.7 µM | 19.5 µM | 95.1 µM | 7.05 µM | > 62.6 µM | 3.25 µM | 12.4 µM | 16.3 µM | 30.1 µM | 31.5 µM | > 100 µM | 22.8 µM | > 100 µM | 31.2 µM | > 69.3 µM | 12.2 µM | > 94.8 µM
CCCCNC(=O)c1cc(NCc2cc(O)ccc2O)ccc1O | 41.1 µM | > 100 µM | 17.7 µM | 39.5 µM | 2.82 µM | 12.1 µM | 6.39 µM | 39.1 µM | 17.4 µM | 32 µM | 15.4 µM | 29.6 µM | 18.9 µM | 43.4 µM | 22.6 µM | 59.1 µM | 8.53 µM | 21.4 µM | 18.5 µM | > 100 µM
Nc1nc(N)c2c(n1)NC(c1ccccc1)C1CCc3ccccc3C1=N2 (stereo not drawn) | 2.29 µM | 8.66 µM | 2.93 µM | 12.6 µM | 2.5 µM | 13.7 µM | 4.57 µM | 25.6 µM | 14.2 µM | 28 µM | 0.638 µM | 2.25 µM | 6.3 µM | 20.7 µM | 4.65 µM | 17.4 µM | 4.89 µM | 19 µM | 7.95 µM | 20.8 µM
Cn1c2ccccc2c2c3[nH][nH]c(=O)c3c3c4ccccc4[nH]c3c21 | 1.61 µM | 5.79 µM | 2.03 µM | 11.1 µM | 2.68 µM | 24.3 µM | 2.05 µM | 13.4 µM | 4.21 µM | > 100 µM | 1.37 µM | 5.04 µM | 2.4 µM | 14.3 µM | 2.09 µM | 21.1 µM | 1.51 µM | 3.57 µM | 0.355 µM | 3.53 µM
COc1ccc(/C=C2\CN(Cc3cn(CCNc4ccnc5cc(Cl)ccc45)nn3)C/C(=C\c3ccc(OC)c(OC)c3)C2=O)cc1OC | 2.53 µM | 13.2 µM | 3.01 µM | 19.1 µM | 14.5 µM | 31 µM | 5.05 µM | > 100 µM | 4.55 µM | 21.5 µM | 1.72 µM | 3.75 µM | 2.32 µM | 6.15 µM | 3.2 µM | 27.7 µM | 1.81 µM | 3.62 µM | 6.67 µM | 40.7 µM
C[C@]1(Cn2ccnn2)C(C(=O)O)N2C(=O)CC2S1(=O)=O (stereo partly drawn) | > 100 µM | > 100 µM | > 100 µM | > 100 µM | > 100 µM | > 100 µM | > 100 µM | > 100 µM | > 100 µM | > 100 µM | > 100 µM | > 100 µM | > 100 µM | > 100 µM | > 100 µM | > 100 µM | > 100 µM | > 100 µM | > 100 µM | > 100 µM
COc1cc2ncnc(Nc3ccc4c(cnn4Cc4ccccc4)c3)c2cc1OC | > 18.6 µM | > 25 µM | > 25 µM | > 25 µM | 3.96 µM | > 25 µM | 2.16 µM | > 25 µM | > 25 µM | > 25 µM | > 17.5 µM | > 25 µM | > 25 µM | > 25 µM | > 19.2 µM | > 25 µM | 8.92 µM | > 25 µM | > 25 µM | > 25 µM
N#Cc1c(N)nc(N)nc1N[C@H](c1nc2c(F)ccc(Cl)c2c(=O)n1-c1cccnc1)C1CC1 | 0.249 µM | 1.55 µM | 13 µM | 34.4 µM | 2.34 µM | 21.1 µM | 1.19 µM | 7.96 µM | 2.72 µM | 45.7 µM | 8.33 µM | 21.9 µM | 11.1 µM | > 100 µM | 14.7 µM | 69.2 µM | 0.32 µM | 3.46 µM | 0.171 µM | 6.9 µM
CCCCC(=O)N/N=C/c1c(O)ccc2ccccc12 | 7.71 µM | 44.4 µM | 4.37 µM | > 100 µM | 1.87 µM | 28 µM | 3.03 µM | > 100 µM | 6.97 µM | > 100 µM | 1.84 µM | 11.4 µM | 3.54 µM | > 100 µM | 1.6 µM | > 100 µM | 2.01 µM | 15.9 µM | 1.57 µM | > 100 µM
